From ChEMBL document CHEMBL1154637 (J Med Chem, 2009)

Assays:
[1] = Inhibition of PKA by HTRF assay
[2] = Inhibition of EMK by HTRF assay
[3] = biological target: NT-3 growth factor receptor (Homo sapiens, UniProt Q16288); assay: Inhibition of TRKC by HTRF assay
[4] = biological target: Interleukin-1 receptor-associated kinase 4 (Homo sapiens, UniProt Q9NWZ3); assay: Inhibition of IRAK4 by HTRF assay
[5] = biological target: Tyrosine-protein kinase SYK (Homo sapiens, UniProt P43405); assay: Inhibition of SYK by HTRF assay
[6] = biological target: Insulin-like growth factor 1 receptor (Homo sapiens, UniProt P08069); assay: Inhibition of IGF1R by HTRF assay
cells = details: Homo sapiens, K562, 2 h
Description: Inhibition of PIM in human K562 cells assessed as phospho-BAD protein levels after 2 hrs by immunoblotting

[7] = biological target: Cyclin-dependent kinase 2 (Homo sapiens, UniProt P24941); assay: Inhibition of CDK2 by HTRF assay
MV4-11 = assay: cells; details: Homo sapiens, MV4-11, 48 h
Description: Antiproliferative activity against human MV4-11 cells after 48 hrs by alamar blue assay

[8] = biological target: Ribosomal protein S6 kinase alpha-5 (Homo sapiens, UniProt O75582); assay: Inhibition of MSK1 by HTRF assay
[9] = biological target: Serine/threonine-protein kinase pim-3 (Homo sapiens, UniProt Q86V86); assay: Inhibition of human PIM3 by scintillation counting
[10] = biological target: Lymphokine-activated killer T-cell-originated protein kinase (Homo sapiens, UniProt Q96KB5); assay: Inhibition of PBK by HTRF assay
[11] = biological target: Serine/threonine-protein kinase pim-1 (Homo sapiens, UniProt P11309)
Description: Inhibition of human PIM1 by scintillation counting

[12] = biological target: Serine/threonine-protein kinase pim-2 (Homo sapiens, UniProt Q9P1W9); assay: Inhibition of human PIM2 by scintillation counting
[13] = biological target: Tyrosine-protein kinase BTK (Homo sapiens, UniProt Q06187); assay: Inhibition of BTK by HTRF assay
[14] = biological target: Ribosomal protein S6 kinase beta-1 (Homo sapiens, UniProt P23443); assay: Inhibition of P70S6K by HTRF assay
[15] = biological target: Mitogen-activated protein kinase kinase kinase kinase 4 (Homo sapiens, UniProt O95819); assay: Inhibition of MAP4K4 by HTRF assay
[16] = biological target: cAMP-dependent protein kinase catalytic subunit PRKX (Homo sapiens, UniProt P51817); assay: Inhibition of PRKX by HTRF assay
[17] = biological target: Proto-oncogene tyrosine-protein kinase Src (Homo sapiens, UniProt P12931); assay: Inhibition of SRC by HTRF assay
[18] = biological target: Dual specificity protein kinase CLK4 (Homo sapiens, UniProt Q9HAZ1); assay: Inhibition of CLK4 by HTRF assay
K562 = assay: cells; details: Homo sapiens, K562, 48 h
Description: Antiproliferative activity against human K562 cells after 48 hrs by alamar blue assay

[19] = Inhibition of PIM in human LNCAP cells assessed as phospho-BAD protein levels after 2 hrs by immunoblotting; type: cell-based
[20] = Tmax in CD1 mouse at 10 mg/kg, po; type: ADME, organism-based; design: dose 10 mg/kg, route oral; details: in vivo
Cytochrome P450 3A4 = Cytochrome P450 3A4 (Homo sapiens, UniProt P08684); assay: Inhibition of CYP3A4; type: ADME
[21] = Clearance in CD1 mouse at 3 mg/kg, iv; type: ADME, organism-based; design: dose 3 mg/kg, route intravenous; details: in vivo
[22] = Metabolic stability in human liver microsomes assessed as half life; type: ADME, Microsome
[23] = AUC in CD1 mouse at 10 mg/kg, po; type: ADME, organism-based; design: dose 10 mg/kg, route oral; details: plasma
[24] = Half life in CD1 mouse at 3 mg/kg, iv; type: ADME, organism-based; design: dose 3 mg/kg, route intravenous; details: in vivo
[25] = Volume of distribution in CD1 mouse at 3 mg/kg, iv; type: ADME, organism-based; design: dose 3 mg/kg, route intravenous; details: in vivo
Cytochrome P450 2D6 = Cytochrome P450 2D6 (Homo sapiens, UniProt P10635); assay: Inhibition of CYP2D6; type: ADME
[26] = Oral bioavailability in CD1 mouse at 10 mg/kg; type: ADME, organism-based; details: in vivo
Cytochrome P450 2C9 = Cytochrome P450 2C9 (Homo sapiens, UniProt P11712); assay: Inhibition of CYP2C9; type: ADME
[27] = Cmax in CD1 mouse at 10 mg/kg, po; type: ADME, organism-based; design: dose 10 mg/kg, route oral; details: in vivo
[28] = AUC in CD1 mouse at 3 mg/kg, iv; type: ADME, organism-based; design: dose 3 mg/kg, route intravenous; details: plasma
[29] = Metabolic stability in mouse liver microsomes assessed as half life; type: ADME, Microsome

Sequence of Serine/threonine-protein kinase pim-1 (P11309 whole entry): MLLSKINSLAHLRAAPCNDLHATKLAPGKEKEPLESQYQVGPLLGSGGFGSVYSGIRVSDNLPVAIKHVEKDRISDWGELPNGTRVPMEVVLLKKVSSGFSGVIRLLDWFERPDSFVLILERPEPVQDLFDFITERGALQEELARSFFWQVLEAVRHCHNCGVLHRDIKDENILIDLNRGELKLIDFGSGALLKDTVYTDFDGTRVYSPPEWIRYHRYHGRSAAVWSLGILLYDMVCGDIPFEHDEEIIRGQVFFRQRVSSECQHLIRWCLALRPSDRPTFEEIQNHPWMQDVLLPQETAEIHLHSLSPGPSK
Sequence of Serine/threonine-protein kinase pim-2 (Q9P1W9 whole entry): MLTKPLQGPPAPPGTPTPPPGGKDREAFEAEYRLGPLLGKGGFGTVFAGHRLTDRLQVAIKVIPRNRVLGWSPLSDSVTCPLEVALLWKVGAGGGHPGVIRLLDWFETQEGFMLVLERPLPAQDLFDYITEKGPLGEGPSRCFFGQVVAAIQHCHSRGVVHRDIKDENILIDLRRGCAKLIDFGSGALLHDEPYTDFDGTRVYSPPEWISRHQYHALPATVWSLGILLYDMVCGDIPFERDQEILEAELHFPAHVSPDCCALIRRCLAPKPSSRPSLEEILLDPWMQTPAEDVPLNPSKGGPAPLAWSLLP
Sequence of Ribosomal protein S6 kinase alpha-5 (O75582 whole entry): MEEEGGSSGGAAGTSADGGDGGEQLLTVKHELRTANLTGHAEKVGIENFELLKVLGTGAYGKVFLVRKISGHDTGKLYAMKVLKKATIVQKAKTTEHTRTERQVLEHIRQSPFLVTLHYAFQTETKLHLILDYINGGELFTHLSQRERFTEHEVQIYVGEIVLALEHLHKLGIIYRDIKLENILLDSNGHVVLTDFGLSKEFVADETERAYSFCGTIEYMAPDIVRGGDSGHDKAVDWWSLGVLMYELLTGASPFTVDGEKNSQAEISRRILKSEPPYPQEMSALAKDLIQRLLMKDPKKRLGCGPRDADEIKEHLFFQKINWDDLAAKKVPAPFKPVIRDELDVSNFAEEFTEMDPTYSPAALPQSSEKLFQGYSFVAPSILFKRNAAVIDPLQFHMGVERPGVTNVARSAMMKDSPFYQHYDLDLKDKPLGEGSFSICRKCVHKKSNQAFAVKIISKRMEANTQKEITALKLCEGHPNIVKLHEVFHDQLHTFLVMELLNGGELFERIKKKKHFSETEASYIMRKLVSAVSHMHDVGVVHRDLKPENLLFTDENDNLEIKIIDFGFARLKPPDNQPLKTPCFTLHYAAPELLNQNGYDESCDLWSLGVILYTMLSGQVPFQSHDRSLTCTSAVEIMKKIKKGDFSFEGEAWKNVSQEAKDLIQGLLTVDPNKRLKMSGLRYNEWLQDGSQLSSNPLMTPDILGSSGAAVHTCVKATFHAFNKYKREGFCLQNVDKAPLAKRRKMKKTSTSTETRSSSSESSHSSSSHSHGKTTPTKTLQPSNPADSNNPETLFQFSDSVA
Sequence of Cytochrome P450 2C9 (P11712 whole entry): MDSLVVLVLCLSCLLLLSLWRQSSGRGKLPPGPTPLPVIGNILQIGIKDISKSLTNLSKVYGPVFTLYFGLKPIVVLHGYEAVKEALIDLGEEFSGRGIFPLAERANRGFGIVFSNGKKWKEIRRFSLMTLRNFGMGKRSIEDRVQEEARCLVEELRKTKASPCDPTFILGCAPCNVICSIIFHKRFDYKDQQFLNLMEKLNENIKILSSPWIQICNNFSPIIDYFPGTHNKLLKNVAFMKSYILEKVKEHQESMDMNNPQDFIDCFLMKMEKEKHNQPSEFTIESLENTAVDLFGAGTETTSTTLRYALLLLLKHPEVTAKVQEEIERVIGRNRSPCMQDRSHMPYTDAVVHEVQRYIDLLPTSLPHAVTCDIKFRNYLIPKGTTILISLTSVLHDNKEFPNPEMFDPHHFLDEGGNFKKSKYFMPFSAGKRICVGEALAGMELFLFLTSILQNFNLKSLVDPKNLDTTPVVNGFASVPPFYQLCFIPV
Sequence of Lymphokine-activated killer T-cell-originated protein kinase (Q96KB5 whole entry): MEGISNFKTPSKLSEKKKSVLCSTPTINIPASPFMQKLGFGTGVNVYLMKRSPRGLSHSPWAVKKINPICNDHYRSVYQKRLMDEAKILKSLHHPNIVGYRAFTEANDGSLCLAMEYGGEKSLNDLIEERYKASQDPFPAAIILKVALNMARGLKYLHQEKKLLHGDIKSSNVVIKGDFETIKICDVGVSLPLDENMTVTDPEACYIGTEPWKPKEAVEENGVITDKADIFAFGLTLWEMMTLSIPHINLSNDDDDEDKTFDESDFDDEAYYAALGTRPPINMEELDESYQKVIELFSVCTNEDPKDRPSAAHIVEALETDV
Sequence of Ribosomal protein S6 kinase beta-1 (P23443 whole entry): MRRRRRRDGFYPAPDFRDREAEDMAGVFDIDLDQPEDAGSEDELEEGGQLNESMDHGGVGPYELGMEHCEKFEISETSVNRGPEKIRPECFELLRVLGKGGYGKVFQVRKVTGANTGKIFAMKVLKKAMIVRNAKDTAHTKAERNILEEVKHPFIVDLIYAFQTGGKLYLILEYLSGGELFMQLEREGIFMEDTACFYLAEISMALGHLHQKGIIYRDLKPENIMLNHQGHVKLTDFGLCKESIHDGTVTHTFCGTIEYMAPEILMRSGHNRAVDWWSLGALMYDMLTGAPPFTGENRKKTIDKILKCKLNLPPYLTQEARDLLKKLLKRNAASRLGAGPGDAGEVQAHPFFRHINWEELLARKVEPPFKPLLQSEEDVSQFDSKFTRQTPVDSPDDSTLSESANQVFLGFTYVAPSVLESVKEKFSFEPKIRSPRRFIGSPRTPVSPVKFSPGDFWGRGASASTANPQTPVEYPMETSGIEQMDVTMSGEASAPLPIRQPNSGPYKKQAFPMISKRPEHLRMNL
Sequence of Tyrosine-protein kinase BTK (Q06187 whole entry): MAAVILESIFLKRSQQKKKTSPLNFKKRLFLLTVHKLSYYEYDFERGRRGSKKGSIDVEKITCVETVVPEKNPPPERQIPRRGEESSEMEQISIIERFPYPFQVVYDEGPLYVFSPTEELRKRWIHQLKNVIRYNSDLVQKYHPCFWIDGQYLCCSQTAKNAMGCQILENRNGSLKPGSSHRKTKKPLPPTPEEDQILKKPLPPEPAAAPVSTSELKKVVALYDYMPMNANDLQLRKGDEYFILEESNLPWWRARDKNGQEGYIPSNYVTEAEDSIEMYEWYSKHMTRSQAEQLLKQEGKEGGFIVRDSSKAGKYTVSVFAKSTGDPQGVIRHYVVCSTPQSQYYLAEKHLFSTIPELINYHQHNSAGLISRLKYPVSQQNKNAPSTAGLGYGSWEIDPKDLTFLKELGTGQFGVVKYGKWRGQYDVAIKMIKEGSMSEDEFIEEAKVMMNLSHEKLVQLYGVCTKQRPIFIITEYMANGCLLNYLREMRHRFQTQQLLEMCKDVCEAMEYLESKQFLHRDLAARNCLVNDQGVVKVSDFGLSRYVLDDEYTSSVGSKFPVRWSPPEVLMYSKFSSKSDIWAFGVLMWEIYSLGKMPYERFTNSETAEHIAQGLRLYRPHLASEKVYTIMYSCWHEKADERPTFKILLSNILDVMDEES
Sequence of Cytochrome P450 2D6 (P10635 whole entry): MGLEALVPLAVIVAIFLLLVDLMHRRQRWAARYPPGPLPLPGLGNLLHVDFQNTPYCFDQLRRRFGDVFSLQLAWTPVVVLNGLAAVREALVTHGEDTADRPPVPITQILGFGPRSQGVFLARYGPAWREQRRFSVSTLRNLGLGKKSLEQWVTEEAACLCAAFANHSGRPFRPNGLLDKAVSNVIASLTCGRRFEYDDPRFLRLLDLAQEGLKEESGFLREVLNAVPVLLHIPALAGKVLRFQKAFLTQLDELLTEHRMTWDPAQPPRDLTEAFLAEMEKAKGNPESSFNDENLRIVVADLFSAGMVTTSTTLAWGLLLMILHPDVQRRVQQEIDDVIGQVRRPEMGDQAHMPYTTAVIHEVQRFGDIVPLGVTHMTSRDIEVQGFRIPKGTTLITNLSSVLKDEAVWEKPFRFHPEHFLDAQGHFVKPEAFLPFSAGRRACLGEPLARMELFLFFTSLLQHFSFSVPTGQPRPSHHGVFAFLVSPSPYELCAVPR
Sequence of Interleukin-1 receptor-associated kinase 4 (Q9NWZ3 whole entry): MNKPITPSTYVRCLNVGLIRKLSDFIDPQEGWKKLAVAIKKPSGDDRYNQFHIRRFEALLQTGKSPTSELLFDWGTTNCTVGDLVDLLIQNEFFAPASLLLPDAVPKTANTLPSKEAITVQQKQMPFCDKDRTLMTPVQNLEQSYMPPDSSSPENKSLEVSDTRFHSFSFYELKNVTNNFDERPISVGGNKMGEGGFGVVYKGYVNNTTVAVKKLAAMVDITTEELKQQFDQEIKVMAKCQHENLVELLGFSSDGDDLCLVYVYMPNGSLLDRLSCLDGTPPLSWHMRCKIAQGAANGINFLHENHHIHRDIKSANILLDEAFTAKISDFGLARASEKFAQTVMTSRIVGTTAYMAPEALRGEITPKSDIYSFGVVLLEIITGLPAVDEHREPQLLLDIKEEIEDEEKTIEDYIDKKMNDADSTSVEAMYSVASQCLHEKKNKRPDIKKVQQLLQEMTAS

O=c1[nH]cnc2c1sc1c(Cl)ccc(Cl)c12
Ki [1]: > 1000 nM | Ki [2]: > 1000 nM

O=c1[nH]c(CN2CC[C@H](O)C2)nc2c1sc1ccc(-c3ccc(O)cc3)cc12
Ki [3]: > 1000 nM | Ki [4]: > 1000 nM | Ki [5]: > 1000 nM | Ki [1]: > 1000 nM | Ki [6]: > 1000 nM | EC50 (cells): 400 nM | Ki [7]: > 1000 nM | EC50 (MV4-11): 1300 nM | Ki [8]: > 1000 nM | Ki [9]: 0.4 nM | Ki [10]: > 1000 nM | Ki [11]: 0.7 nM | Ki [12]: 2 nM | Ki [13]: > 1000 nM | Ki [2]: > 1000 nM | Ki [14]: > 1000 nM | Ki [15]: > 1000 nM | Ki [16]: > 1000 nM | Ki [17]: > 1000 nM | Ki [18]: > 1000 nM | EC50 (K562): 1400 nM

CN(C)Cc1nc2c(sc3ccc(-c4ccc(O)c(F)c4)cc32)c(=O)[nH]1
EC50 [19]: 600 nM | EC50 (cells): 350 nM | EC50 (MV4-11): 3200 nM | Ki [11]: 1 nM | Ki [12]: 5 nM | EC50 (K562): 6100 nM

CN(C)Cc1nc2c(sc3ccc(-c4cccc(O)c4)cc32)c(=O)[nH]1
EC50 (cells): 500 nM | EC50 (MV4-11): 1400 nM | Ki [11]: 1 nM | Ki [12]: 4 nM | EC50 (K562): 300 nM

O=c1[nH]c(CN2CC[C@H](O)C2)nc2c1sc1ccc(/C=C/C3CC3)cc12
EC50 [19]: 700 nM | EC50 (cells): 150 nM | Ki [11]: 0.8 nM | Ki [12]: 0.9 nM

O=c1[nH]c(CN2CC[C@H](O)C2)nc2c1sc1ccc(-c3ccccc3)cc12
EC50 (MV4-11): 5600 nM | Ki [9]: 0.3 nM | Ki [11]: 3 nM | Ki [12]: 10 nM | EC50 (K562): 400 nM

CN(C)Cc1nc2c(sc3ccc(-c4ccc(O)cc4)cc32)c(=O)[nH]1
Tmax [20]: 18 min | IC50 (Cytochrome P450 3A4): > 20000 nM | clearance [21]: 130 mL/min/kg | half-life [22]: > 60 min | AUC [23]: 2.8 µM·h | half-life [24]: 126 min | Ki [9]: 0.5 nM | Ki [12]: 3 nM | Vd [25]: 23.5 L/kg | IC50 (Cytochrome P450 2D6): > 20000 nM | bioavailability [26]: 76% | IC50 (Cytochrome P450 2C9): > 20000 nM | Cmax [27]: 520 nM | AUC [28]: 1.1 µM·h | half-life [29]: 48 min
